Source: patent US10266564B2, “Cationic lipid cordiarimide hybrid compounds and a process for preparation thereof” (COUNCIL OF SCIENTIFIC & INDUSTRIAL RESEARCH, priority 2014, dated 2019)
Entries after “also recorded” stand apart in the source; their conditions may differ.

What was measured:
[1] = system: PC-3 (human prostate cancer cells); experiment: MTT assay for cell viability, PC-3; type: cell-based; details: Homo sapiens, 48 h
Experimental: (§1) The human cancer cell lines e.g. HepG2 (hepatocellular carcinoma, ATCC® HB-8065™), PC-3 (human prostate cancer cells, ATCC® CRL-1435™), MCF-7 (breast adenocarcinoma, ATCC® […]), and mouse embryo fibroblasts (NIH/3T3, ATCC® CRL-1658™), used in the present study were obtained from the ATCC (American Type Culture Collection, USA and maintained in RPMI 1640 (Roswell Park Memorial Institute, Merck) with 10% FBS (Merck), supplemented with 1% antibiotic and antimycotic solution (Gibco, USA) at 37° C. in a humidified incubator with 5% CO2. All stock solutions of the compounds were prepared in cell culture grade DMSO (dimethyl sulfoxide) and stored at −20° C. Compounds were diluted in culture media prior to use in experiments. Annexin V-FITC apoptosis detection kits were purchased from Calbiochem. MTT dye was procured from Sigma-Aldrich. All the flow cytometry experiments were performed using a FACScan (Becton Dickinson, Mountain View, Calif.) flow cytometer, equipped with a single 488 nm argon laser.
(§2) Cell viability was assessed by MTT assay, which is based on the reduction of MTT by mitochondrial dehydrogenases of viable cells to form a purple formazan product. Briefly, cells (5-6×10^3/well) were plated in 96 well plates. After incubating overnight, the cells were treated with […] different concentrations (100, 50, 20, 10, 5, 2.5, 1.25 μM) in triplicates with the cationic lipidated cordiarimide and intermediates for 48 h. Subsequently, 10 μL of MTT (10 mg/mL) was added to each well and incubated for 3 h. The MTT formazan formed by viable cells was dissolved in 100 μL of DMSO and shaken for 10 min. The absorbance was measured on an ELISA reader. Each test was repeated at least three times. The concentration of the compound which gives the 50% growth inhibition value corresponding to IC50, was calculated using GraphPad prism 5 software. In the present invention we have screened 26 lipidated cordiarimides and the results are described in table 1.

[2] = system: HepG2 (hepatocellular carcinoma); experiment: MTT assay for cell viability, HepG2; type: cell-based, human; details: Homo sapiens, HepG2, 48 h
Experimental: as §1, §2

[3] = system: MCF-7 (breast adenocarcinoma); experiment: MTT assay for cell viability, MCF-7; type: cell-based, human; details: Homo sapiens, MCF7, 48 h
Experimental: as §1, §2

[4] = system: mouse embryo fibroblasts (NIH/3T3); experiment: MTT assay for cell viability, NIH/3T3; type: cell-based; details: NIH3T3, 48 h
Experimental: as §1, §2

[5] = system: HepG2, NH/3T3, PC-3, MCF-7 cell lines; experiment: MTT assay, summary over the cell line panel; type: cell-based; details: across tested cell lines
Experimental: as §1, §2

HepG2 cells [6] = experiment: Apoptosis, annexin V/PI staining by flow cytometry; type: cell-based, human; details: HepG2, 24 h
Experimental: Quantitation of apoptotic cells by annexin V staining was carried out according to the manufacturer's instructions. Briefly, cells (5×10^5 cells/well) were seeded in 6 well plates and treated with 5 μM of 8h-8k for 24 h. After incubation, cells were washed with PBS and stained with 1.25 μL of annexin V-FITC and 10 μL of media binding reagent and incubated for 20 min. After that 10 μL of PI was added and samples were analyzed using a flow cytometer. Annexin V-FITC was analyzed using excitation and emission settings of 488 nm and 535 nm (FL-1 channel); PI, 488 nm and 610 nm (FL-2 channel). Debris and clumps were gated out using forward and orthogonal light scatter. Each experiment was repeated two times independently. Results are illustrated in FIG. 1 and the percentage of Annexin-V/PI positive cells increased gradually from 20 to 70% after 24 h of treatment (FIG. 1).

HepG2 cells [7] = experiment: Cell cycle analysis, PI staining by flow cytometry; type: cell-based, human; details: HepG2, 24 h, 5, 10, and 20 mM as printed
Experimental: For cell cycle distribution studies after treatment with different molar concentrations of 8i and 8k, HepG2 cells were fixed overnight in 70% ethanol, rehydrated in PBS with ribonuclease A (100 μg/ml) and Triton-X (1%) for 30 min at room temperature then PI (at 50 μg/ml) was added and incubated in the dark for 30 min and analyzed with a flow cytometer. Experiments were repeated two times independently.

caspase-3 in HepG2 cells = experiment: Caspase-3 colorimetric activation assay; type: cell-based, human; details: HepG2, 5 and 10 μM, 24 h
Experimental: The activity of caspase-3 was determined using a caspase-3 colorimetric assay kit (Sigma Aldrich) according to the manufacturer's protocol. Briefly, HepG2 cells (1×10^6 cells/well) were treated with 5 and 10 μM of 8i and 8k for 24 h. The cells were harvested and lysed by addition of lysis buffer. Cell lysates were mixed with colorimetric substrate (Ac-DEVD-pNA) and incubated at 37° C. in the dark for 4 h. The absorbance was measured at 405 nm in an ELISA reader. Caspase-3 activity was expressed as the change of the activity compared to the control (FIG. 3).

human ligase I = human ligase I (Homo sapiens, UniProt P18858); experiment: Ligation assay, DNA ligase I; type: biochemical; details: screening, FIG. 4 and FIG. 7
human ligase I, sequence (P18858 whole entry): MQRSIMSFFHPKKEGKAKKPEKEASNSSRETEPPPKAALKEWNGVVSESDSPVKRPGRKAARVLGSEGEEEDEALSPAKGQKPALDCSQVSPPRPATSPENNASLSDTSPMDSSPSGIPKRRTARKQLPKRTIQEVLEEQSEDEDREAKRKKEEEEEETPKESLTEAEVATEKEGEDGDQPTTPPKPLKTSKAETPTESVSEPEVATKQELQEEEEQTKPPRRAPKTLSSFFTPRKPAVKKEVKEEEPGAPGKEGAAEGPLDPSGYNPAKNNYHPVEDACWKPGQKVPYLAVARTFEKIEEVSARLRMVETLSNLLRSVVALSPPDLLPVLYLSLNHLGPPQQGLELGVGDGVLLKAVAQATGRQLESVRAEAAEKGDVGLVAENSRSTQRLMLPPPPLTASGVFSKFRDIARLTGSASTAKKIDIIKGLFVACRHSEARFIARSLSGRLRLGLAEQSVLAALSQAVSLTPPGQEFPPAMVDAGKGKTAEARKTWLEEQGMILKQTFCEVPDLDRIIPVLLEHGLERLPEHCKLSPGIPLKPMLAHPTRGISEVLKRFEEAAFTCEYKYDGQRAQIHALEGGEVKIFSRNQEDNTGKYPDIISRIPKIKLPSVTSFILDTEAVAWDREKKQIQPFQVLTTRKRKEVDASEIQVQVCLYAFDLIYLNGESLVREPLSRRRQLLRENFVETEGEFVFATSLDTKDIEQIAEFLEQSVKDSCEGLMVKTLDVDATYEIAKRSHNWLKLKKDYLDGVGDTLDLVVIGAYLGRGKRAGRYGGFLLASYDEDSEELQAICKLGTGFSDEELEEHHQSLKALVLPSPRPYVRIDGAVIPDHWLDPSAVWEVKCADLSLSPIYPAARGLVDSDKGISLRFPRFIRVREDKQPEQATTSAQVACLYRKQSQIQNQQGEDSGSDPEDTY
Excerpt: The ligation assay was done strictly following the assay protocol described in Xi Chen et. al, Cancer Res 2008; 68(9):3169-3177. The DNA molecules 52 mer (5′-3′), 28-mer (5′-3′) and 34-mer (5′-3′) were used to construct a double stranded nicked substrate for the ligase enzyme (FIG. 4). The 34-mer oligo was labelled with 32P-AMP to form a substrate for ligase and to form a ligase-AMP intermediate. During ligation, the ligase would transfer the AMP to the nick forming a phosphodiester bond and seal the nick. The ligated DNA molecule would be larger in size and run higher up on a 7% Urea-containing denaturing acrylamide gel. If an inhibitor is added to the reaction mixture prior to the addition of ligase, this would lead to an inhibition of ligation and a corresponding loss of labelled ligated product in the gel. We would then be able to calculate the percentage of inhibition of ligation by estimating the amount of ligated product in the lane with no inhibitor and comparing it with the lanes containing different inhibitor molecules or with the same inhibitor molecule at different concentrations.

MOLT-3 = details: according to Kittakoop et al.; cited from earlier work
HepG2 = details: according to Kittakoop et al.; cited from earlier work
A549 = details: according to Kittakoop et al.; cited from earlier work
HuCCA-1 = details: according to Kittakoop et al.; cited from earlier work

| IC50 [1] [µM] | IC50 [2] [µM] | IC50 [3] [µM] | DNA ligase I / ligation inhibition (in words) (human ligase I) | SMILES | IC50 [4] [µM] | antiproliferative / anticancer activity (in words) [5] | apoptosis induction (in words) (HepG2 cells [6]) | effect on cell cycle progression (HepG2 cells [7]) | caspase-3 activation (caspase-3 in HepG2 cells) | IC50 (MOLT-3) [µM] | cytotoxicity toward HepG2 (HepG2) | cytotoxicity toward A549 (A549) | cytotoxicity toward HuCCA-1 (HuCCA-1) |
| --- | --- | --- | --- | --- | --- | --- | --- | --- | --- | --- | --- | --- | --- |
| > 20 | 3.43 | 6.37 |  | CCCCCCCC[N+](C)(CCCCCCCC)CC(=O)NC1CCC(=O)N(CC(=O)c2ccccc2)C1=O (stereo not drawn) [Compound 8g, {[2,6-Dioxo-1-(2-oxo-2-phenyl-ethyl)-piperidin-3-ylcarbamoyl]-methyl}-Methyl-dioctyl-ammonium iodide] | 5.48 | very good anticancer activity without selectivity |  |  |  |  |  |  |  |
| 4.23 | 3.07 | 5.21 |  | CCCCCCCCCC[N+](C)(CCCCCCCCCC)CC(=O)NC1CCC(=O)N(CC(=O)c2ccccc2)C1=O (stereo not drawn) [Compound 8i, Bis-decyl-{[2,6-dioxo-1-(2-oxo-2-phenyl-ethyl)-piperidin-3-ylcarbamoyl]-methyl}-methyl-ammonium iodide] | 2.13 | very good anticancer activity without selectivity | induced significant amount of apoptosis | did not altered cell cycle progression; also recorded: did not show any impact on cell cycle progression | activated the caspase-3 in HepG2 cells dose dependently; also recorded: activated the casepase-3 in HepG2 cells dose dependently |  |  |  |  |
|  |  |  | did not show any ligation inhibition | CC(=O)NC1CCC(=O)N(CC(=O)c2ccccc2)C1=O (stereo not drawn) [Cordiarimide A] |  |  |  |  |  | 145 | inactive | inactive | inactive |
